Measured values taken from publication PMC12485897, “Characterization of the thermophilic xylanase Fsa02490Xyn from the hyperthermophile Fervidibacter sacchari belonging to glycoside hydrolase family 10” (FEBS Open Bio, 2025).

Test system: T1, Fsa02490Xyn
T1 construct: TAT signal peptide removed (mature 430 residues, 48 kDa); N-terminal 6xHis tag, GB1 solubility tag and TEV site kept (~53 kDa expected); codon-optimized, pET21b, E. coli T7 Express; monomer
Assay: para-nitrophenol release, absorbance […] nm; Lineweaver-Burk plot
Format: biochemical, Fervidibacter sacchari
Conditions: pH 7.5, 90 °C, 11 min, 0.697 μM enzyme

- Km: 2380 µM
Structure (SMILES): O=[N+]([O-])c1ccc(O[C@@H]2OC[C@@H](O[C@@H]3OC[C@@H](O)[C@H](O)[C@H]3O)[C@H](O)[C@H]2O)cc1 [pNPX2]
